Calls of active or inactive are those of the source. The calls are words filed in the database; no cut-off is given here. Numbered stars: 1 amine (or outer) side, 2 acyl side, 3 side chain; on linkers, the order of the positions; unused ones are H or OH. Bridge positions count the residues as written; N and C are the ends. Square brackets hold non-standard residues; d marks the D form. Peptide text beside a SMILES is read from it. ξ: configuration not given here. Orn = NCCC[C@H](N)C(=O)O; Dap = NC[C@H](N)C(=O)O; ξOrn = NCCCC(N)C(=O)O; CO = O=C([*:1])[*:2]; ξDap = NCC(N)C(=O)O
Legend:
[1] = Proteolytic stability of the compound in ammonium bicarbonate buffer assessed as hydrolysis at pH 8 at 10^-4 M after 12 hrs by ESI-MS spectrophotometry in presence […]; assay type: ADME; conditions: isolated protein, pH 8, 12 h, 100 µM
[2] = tested on: chymotrypsin; assay: Proteolytic stability of the compound in ammonium bicarbonate buffer assessed as hydrolysis at pH 8 at 10^-4 M after 1.5 hrs by ESI-MS spectrophotometry in presence of chymotrypsin; assay type: ADME; conditions: read-out: Drug degradation
[3] = tested on: Mus musculus; assay: Antinociceptive activity in BALB/c mouse assessed as increase in paw withdrawal latency at 1 mg/kg, ip measured 30 mins post dose by hot plate test; assay type: functional, organism-based; set-up: dose 1 mg/kg
[4] = Proteolytic stability of the compound in ammonium bicarbonate buffer assessed as hydrolysis at pH 8 at 10^-4 M after 12 hrs by ESI-MS spectrophotometry in presence of chymotrypsin; assay type: ADME; conditions: isolated protein, pH 8, 12 h, 100 µM
[5] = tested on: Mus musculus; assay: Antinociceptive activity in BALB/c mouse assessed as increase in paw withdrawal latency at 1 mg/kg, iv measured 30 mins post dose by hot plate test; assay type: functional, organism-based; set-up: dose 1 mg/kg
[6] = tested on: Mus musculus; assay: Antinociceptive activity in BALB/c mouse assessed as increase in paw withdrawal latency at 0.1 mg/kg, sc measured 30 mins post dose by hot plate test; assay type: functional, organism-based; set-up: dose 0.1 mg/kg
[7] = Proteolytic stability of the compound in ammonium bicarbonate buffer assessed as hydrolysis at pH 8 at 10^-4 M after 2.5 hrs by ESI-MS spectrophotometry in presence […]; assay type: ADME; conditions: isolated protein, pH 8, 2.5 h, 100 µM
[8] = Proteolytic stability of the compound in ammonium bicarbonate buffer assessed as intact cyclic fragment at pH 8 at 10^-4 M after 2.5 hrs by ESI-MS spectrophotometry in presence […]; assay type: ADME; conditions: isolated protein, pH 8, 2.5 h, 100 µM
[9] = tested on: Mus musculus; assay: Antinociceptive activity in BALB/c mouse at 2 mg/kg, iv measured 30 mins post dose by tail flick test relative to vehicle-treated control; assay type: functional
[10] = tested on: Mus musculus; assay: Antinociceptive activity in BALB/c mouse at 0.5 mg/kg, iv measured 30 to 90 mins post dose by tail flick test relative to vehicle-treated control; assay type: functional
[11] = tested on: Mus musculus; assay: Antinociceptive activity in BALB/c mouse at 4 mg/kg, iv up to 120 mins by tail flick test; assay type: functional, organism-based; set-up: dose 4 mg/kg
[12] = tested on: Mus musculus; assay: Antinociceptive activity in BALB/c mouse at 1 mg/kg, iv measured 30 to 90 mins post dose by tail flick test relative to vehicle-treated control; assay type: functional
[13] = tested on: Mus musculus; assay: Antinociceptive activity in iv dosed BALB/c mouse measured 15 to 180 mins post dose by tail flick test; assay type: functional, organism-based
[14] = tested on: Mus musculus; assay: Antinociceptive activity in BALB/c mouse at 2 mg/kg, iv measured 15 to 180 mins post dose by tail flick test; assay type: functional, organism-based; set-up: dose 2 mg/kg
[15] = Proteolytic stability of the compound in ammonium bicarbonate buffer assessed as hydrolysis at pH 8 at 10^-4 M after 20 mins to 12 hrs by ESI-MS spectrophotometry in presence of chymotrypsin; assay type: ADME; conditions: isolated protein, pH 8, 100 µM
[16] = Proteolytic stability of the compound in ammonium bicarbonate buffer assessed as hydrolysis at pH 8 at 10^-4 M after 20 mins to 12 hrs by ESI-MS spectrophotometry in presence […]; assay type: ADME; conditions: isolated protein, pH 8, 100 µM

SMILES	Stability [1]	metabolised at 1.5 h, 100 µM [2] [%]	Activity [3]	Stability [4]	Activity [5]	Activity [6]	further results
NCCNC(=O)[C@@H]1CNC(=O)NCCCC[C@@H](NC(=O)[C@@H](N)Cc2ccc(O)cc2)C(=O)N[C@@H](Cc2ccccc2)C(=O)N1	Stable	< 1	inactive	Stable	inactive	inactive	–
NC(=O)NCCNC(=O)[C@@H]1CCCCNC(=O)NCCC[C@@H](NC(=O)[C@@H](N)Cc2ccc(O)cc2)C(=O)N[C@@H](Cc2ccccc2)C(=O)N1	Stable	< 1	inactive	Stable	inactive	inactive	–
NC(=O)C1CNC(=O)NCCCC(NC(=O)[C@@H](N)Cc2ccc(O)cc2)C(=O)N[C@@H](Cc2ccccc2)C(=O)N1 (some centres undefined) (H-Y[ξOrn]F[ξDap]-NH2; linker 2-4 via CO)	–	–	–	–	–	–	Stability [7]: Unstable
NC(=O)[C@@H]1CCCCNC(=O)NC[C@H](NC(=O)[C@@H](N)Cc2ccc(O)cc2)C(=O)N[C@@H](Cc2ccccc2)C(=O)N1 (H-Y[Dap]FK-NH2; linker 2-4 via CO)	–	–	–	–	–	–	Stability [8]: 98%
NC(=O)[C@@H]1CCCCNC(=O)NCCC[C@H](NC(=O)[C@@H](N)Cc2ccc(O)cc2)C(=O)N[C@@H](Cc2ccccc2)C(=O)N1 (H-Y[Orn]FK-NH2; linker 2-4 via CO)	–	–	–	–	–	–	Stability [7]: Unstable
NC(=O)NCCNC(=O)[C@@H]1CNC(=O)NCCCC[C@@H](NC(=O)[C@@H](N)Cc2ccc(O)cc2)C(=O)N[C@@H](Cc2ccccc2)C(=O)N1	Stable	< 1	inactive	Stable	inactive	inactive	–
NC(=O)NCCNC(=O)[C@@H]1CCCCNC(=O)NCCCC[C@@H](NC(=O)[C@@H](N)Cc2ccc(O)cc2)C(=O)N[C@@H](Cc2ccccc2)C(=O)N1	Stable	< 1	inactive	Stable	inactive	inactive	–
NC(=O)NCCNC(=O)[C@@H]1CCCNC(=O)NCCC[C@@H](NC(=O)[C@@H](N)Cc2ccc(O)cc2)C(=O)N[C@@H](Cc2ccccc2)C(=O)N1	Stable	< 1	inactive	Stable	inactive	inactive	–
NC(=O)NCCNC(=O)[C@@H]1CCCNC(=O)NCCCC[C@@H](NC(=O)[C@@H](N)Cc2ccc(O)cc2)C(=O)N[C@@H](Cc2ccccc2)C(=O)N1	Stable	< 1	inactive	Stable	inactive	inactive	–
NC(=O)NCCNC(=O)[C@@H]1CCNC(=O)NCCC[C@@H](NC(=O)[C@@H](N)Cc2ccc(O)cc2)C(=O)N[C@@H](Cc2ccccc2)C(=O)N1	Stable	< 1	inactive	Stable	inactive	inactive	–
CCNC(=O)[C@@H]1CCCNC(=O)NCCCC[C@@H](NC(=O)[C@@H](N)Cc2ccc(O)cc2)C(=O)N[C@@H](Cc2ccccc2)C(=O)N1	Stable	< 1	inactive	Stable	inactive	inactive	–
CN1CC[C@]23c4c5ccc(O)c4O[C@H]2[C@@H](O)C=C[C@H]3[C@H]1C5 [MORPHINE]	–	–	–	–	inactive	–	MPE [9]: 63.1%; Activity [10]: inactive; Activity [11]: Active; Activity [12]: inactive
NC(=O)NCCNC(=O)[C@@H]1CNC(=O)NCCC[C@@H](NC(=O)[C@@H](N)Cc2ccc(O)cc2)C(=O)N[C@@H](Cc2ccccc2)C(=O)N1	Stable	< 1	inactive	Stable	inactive	inactive	–
NC(=O)NCCNC(=O)[C@@H]1CCNC(=O)NCCCC[C@@H](NC(=O)[C@@H](N)Cc2ccc(O)cc2)C(=O)N[C@@H](Cc2ccccc2)C(=O)N1	–	< 1	inactive	–	Active	inactive	Activity [13]: Dose-dependent effect; Activity [14]: Active; Stability [15]: Stable; MPE [10]: 41.8%; Activity [11]: Active; MPE [12]: 54.7%; Stability [16]: Stable
NC(=O)[C@@H]1CNC(=O)NCCCC[C@H](NC(=O)[C@@H](N)Cc2ccc(O)cc2)C(=O)N[C@@H](Cc2ccccc2)C(=O)N1 (H-YKF[Dap]-NH2; linker 2-4 via CO)	–	–	–	–	–	–	Stability [8]: 98%

— ChEMBL document CHEMBL2380201, “Synthesis, biological activity and resistance to proteolytic digestion of new cyclic dermorphin/deltorphin analogues” (Eur J Med Chem, 2013)
